According to patent publication US12501900B2, “Heterocyclyl pyridazine as fungicidal compounds” (Bayer Aktiengesellschaft, priority 2018, dated 2025):

Experiments:
Septoria tritici [1] = assay: In vivo preventive test on Septoria tritici (leaf spot on wheat); conditions: Zymoseptoria tritici, in Triticum aestivum; 500 ppm of active ingredient; preventive spray on wheat; evaluated 19 days after inoculation; read-out: efficacy
Procedure: Example: In Vivo Preventive Test on Septoria tritici (Leaf Spot on Wheat)
(§1) • Solvent: 5% by volume of Dimethyl sulfoxide • 10% by volume of Acetone • Emulsifier: 1 μl of Tween® 80 per mg of active ingredient
(§2) The active ingredients were made soluble and homogenized in a mixture of Dimethyl sulfoxide/Acetone//Tween®80 and then diluted in water to the desired concentration.
The young plants of wheat were treated by spraying the active ingredient prepared as described above. Control plants were treated only with an aqueous solution of Acetone/Dimethyl sulfoxide/Tween®80.
After 24 hours, the plants were contaminated by spraying the leaves with an aqueous suspension of Septoria tritici spores. The contaminated wheat plants were incubated for 72 hours at 17° C. and at 100% relative humidity and then for 15 days at 20° C. and at 90% relative humidity.
The test was evaluated 19 days after the inoculation. 0% means an efficacy which corresponds to that of the control plants while an efficacy of 100% means that no disease was observed.

Alternaria brassicae = assay: In vivo preventive test on Alternaria brassicae (leaf spot on radish or cabbage); conditions: 144 h, 500 ppm of active ingredient, preventive spray on radish or cabbage, evaluated 6 days after inoculation, read-out: efficacy
Procedure: Example: In Vivo Preventive Test on Alternaria brassicae (Leaf Spot on Radish or Cabbage)
as §1, §2
The young plants of radish or cabbage were treated by spraying the active ingredient prepared as described above. Control plants were treated only with an aqueous solution of Acetone/Dimethyl sulfoxide/Tween® 80.
After 24 hours, the plants were contaminated by spraying the leaves with an aqueous suspension of Alternaria brassicae spores. The contaminated radish or cabbage plants were incubated for 6 days at 20° C. and at 100% relative humidity.
The test was evaluated 6 days after the inoculation. 0% means an efficacy which corresponds to that of the control plants while an efficacy of 100% means that no disease was observed.

Pyrenophora teres = assay: In vivo preventive test on Pyrenophora teres (net blotch on barley); conditions: 240 h, 500 ppm of active ingredient, preventive spray on barley, evaluated 10 days after inoculation, read-out: efficacy
Procedure: Example: In Vivo Preventive Test on Pyrenophora teres (Net Blotch on Barley)
as §1, §2
The young plants of barley were treated by spraying the active ingredient prepared as described above. Control plants were treated only with an aqueous solution of Acetone/Dimethyl sulfoxide/Tween®80.
After 24 hours, the plants were contaminated by spraying the leaves with an aqueous suspension of Pyrenophora teres spores. The contaminated barley plants were incubated for 48 hours at 20° C. and at 100% relative humidity and then for 8 days at 20° C. and at 70-80% relative humidity.
The test was evaluated 10 days after the inoculation. 0% means an efficacy which corresponds to that of the control plants while an efficacy of 100% means that no disease was observed.

Septoria tritici [2] = assay: Septoria tritici in vitro cell test; type: cell-based; conditions: Zymoseptoria tritici, 168 h; 20 ppm of active ingredient; liquid culture, 7 days incubation; read-out: efficacy (inhibition of fungal growth)
Procedure: (§3) Example: Septoria tritici In Vitro Cell Test • Solvent: DMSO • Culture medium: 14.6 g anhydrous D-glucose (VWR), 7.1 g Bacteriological Peptone (Oxoid), • 1.4 g granulated Yeast Extract (Merck), QSP 1 liter • Inoculum: spore suspension Fungicides were solubilized in DMSO and the solution used to prepare the required range of concentrations. The final concentration of DMSO used in the assay was ≤1%. A spore suspension of Septoria tritici was prepared and diluted to the desired spore density. Fungicides were evaluated for their ability to inhibit spore germination and mycelium growth in liquid culture assay. The compounds were added in the desired concentration to the culture medium with spores. After 7 days incubation, fungi-toxicity of compounds was determined by spectrometric measurement of mycelium growth. Inhibition of fungal growth was determined by comparing the absorbance values in wells containing the fungicides with the absorbance in control wells without fungicides.

[3] = system: Colletotrichum lindemuthianum; assay: In vivo preventive test on Colletotrichum lindemuthianum (leaf spot on bean); conditions: 168 h, 500 ppm of active ingredient, preventive spray on bean, evaluated 7 days after inoculation, read-out: efficacy
Procedure: Example: In Vivo Preventive Test on Colletotrichum lindemuthianum (Leaf Spot on Bean)
as §1, §2
The young plants of bean were treated by spraying the active ingredient prepared as described above. Control plants were treated only with an aqueous solution of Acetone/Dimethyl sulfoxide/Tween® 80.
After 24 hours, the plants were contaminated by spraying the leaves with an aqueous suspension of Colletotrichum lindemuthianum spores. The contaminated bean plants were incubated for 24 hours at 20° C. and at 100% relative humidity and then for 6 days at 20° C. and at 90% relative humidity.
The test was evaluated 7 days after the inoculation. 0% means an efficacy which corresponds to that of the control plants while an efficacy of 100% means that no disease was observed.

Alternaria alternata = Alternaria alternata in vitro cell test; type: cell-based; conditions: 120 h, 20 ppm of active ingredient, liquid culture, 5 days incubation, read-out: efficacy (inhibition of fungal growth)
Procedure: as §3, with “Example: Alternaria alternata” for “Example: Septoria tritici”, “g Mycological” for “g Bacteriological”, “(Oxoid),” for “(Oxoid), •”, “Inoculum: spores” for “Inoculum: spore”, “of A. alternata” for “of Septoria tritici”, “After 5” for “After 7”

Botrytis cinerea = assay: In vivo preventive test on Botrytis cinerea (grey mould); conditions: 500 ppm of active ingredient, preventive spray on gherkin or cabbage, evaluated 4 to 5 days after inoculation, read-out: efficacy
Procedure: Example: In Vivo Preventive Test on Botrytis cinerea (Grey Mould)
as §1, §2
The young plants of gherkin or cabbage were treated by spraying the active ingredient prepared as described above. Control plants were treated only with an aqueous solution of Acetone/Dimethyl sulfoxide/Tween® 80.
After 24 hours, the plants were contaminated by spraying the leaves with an aqueous suspension of Botrytis cinerea spores. The contaminated gherkin plants were incubated for 4 to 5 days at 17° C. and at 90% relative humidity. The contaminated cabbage plants were incubated for 4 to 5 days at 20° C. and at 100% relative humidity.
The test was evaluated 4 to 5 days after the inoculation. 0% means an efficacy which corresponds to that of the control plants while an efficacy of 100% means that no disease was observed.

[4] = system: Colletotrichum lindemuthianum; assay: Colletotrichum lindemuthianum in vitro cell test; type: cell-based; conditions: 144 h, 20 ppm of active ingredient, liquid culture, 6 days incubation, read-out: efficacy (inhibition of fungal growth)
Procedure: Example: Colletotrichum lindemuthianum In Vitro Cell Test • Solvent: DMSO • Culture medium: 14.6 g anhydrous D-glucose (VWR), 7.1 g Mycological Peptone (Oxoid), 1.4 g granulated Yeast Extract (Merck), QSP 1 liter • Inoculum: spores suspension Fungicides were solubilized in DMSO and the solution used to prepare the required range of concentrations. The final concentration of DMSO used in the assay was ≤1%. A spore suspension of C. lindemuthianum was prepared and diluted to the desired spore density. Fungicides were evaluated for their ability to inhibit spores germination and mycelium growth in liquid culture assay. The compounds were added in the desired concentration to the culture medium with spores. After 6 days incubation, fungi-toxicity of compounds was determined by spectrometric measurement of mycelium growth. Inhibition of fungal growth was determined by comparing the absorbance values in wells containing the fungicides with the absorbance in control wells without fungicides.

Sphaerotheca fuliginea = assay: In vivo preventive test on Sphaerotheca fuliginea (powdery mildew on cucurbits); conditions: Podosphaera fuliginea, 192 h; 500 ppm of active ingredient; preventive spray on gherkin; evaluated 8 days after inoculation; read-out: efficacy
Procedure: Example: In Vivo Preventive Test on Sphaerotheca fuliginea (Powdery Mildew on Cucurbits)
as §1, §2
The young plants of gherkin were treated by spraying the active ingredient prepared as described above. Control plants were treated only with an aqueous solution of Acetone/Dimethyl sulfoxide/Tween® 80.
After 24 hours, the plants were contaminated by spraying the leaves with an aqueous suspension of Sphaerotheca fuliginea spores. The contaminated gherkin plants were incubated for 8 days at 20° C. and at 70-80% relative humidity.
The test was evaluated 8 days after the inoculation. 0% means an efficacy which corresponds to that of the control plants while an efficacy of 100% means that no disease was observed.

[5] = Measurement of LogP values by HPLC on reversed phase columns (EEC directive 79/831 Annex V.A8), methods [a], [b], [c]; type: physicochemical; conditions: HPLC on reversed phase column, method [a]; read-out: Log P
Procedure: Measurement of Log P values as provided herein was performed according to EEC directive 79/831 Annex V.A8 by HPLC (High Performance Liquid Chromatography) on reversed phase columns with the following methods: • ^[a]
If more than one Log P value is available within the same method, all the values are given and separated by “+”.
Lambda-max-values were determined using UV-spectra from 200 nm to 400 nm and the peak values of the chromatographic signals

Compound	pest or weed control at 500 ppm (Septoria tritici [1]) [%]	pest or weed control at 500 ppm (Alternaria brassicae) [%]	pest or weed control at 500 ppm (Pyrenophora teres) [%]	inhibition at 20 ppm (Septoria tritici [2]) [%]	pest or weed control at 500 ppm [3] [%]	inhibition at 20 ppm (Alternaria alternata) [%]	pest or weed control at 500 ppm (Botrytis cinerea) [%]	inhibition at 20 ppm [4] [%]	pest or weed control at 500 ppm (Sphaerotheca fuliginea) [%]	chromatographic logP [5]
Cc1ccc(CC2CON=C(c3cc(Cl)nnc3Oc3cccc(C(F)(F)F)c3)N2)c(C)c1 (racemic) [I-059, rac-3-[6-chloro-3-[3-(trifluoromethyl)phenoxy]pyridazin-4-yl]-5-[(2,4-dimethylphenyl)methyl]-5,6-dihydro-4H-1,2,4-oxadiazine]	90 to 100	90 to 100	90 to 100	90 to 100	90 to 100	90 to 100	90 to 100	90 to 100	90 to 100	–
Cc1cc(C2=NOCC(c3cn(C)c4ccccc34)N2)c(Oc2cccc(C(F)(F)F)c2)nn1 (racemic) [I-011, rac-5-(1-methylindol-3-yl)-3-[6-methyl-3-[3-(trifluoro-methyl)phenoxy]pyridazin-4-yl]-5,6-dihydro-4H-1,2,4-oxadiazine]	–	90 to 100	70 to 79	90 to 100	80 to 89	90 to 100	90 to 100	90 to 100	90 to 100	3.23
FC(F)(F)c1cccc(Oc2nnc(Cl)cc2C2=NOC[C@H](Cc3ccccc3)N2)c1 (single isomer, unassigned) [I-070]	–	90 to 100	90 to 100	80 to 89	90 to 100	90 to 100	90 to 100	90 to 100	90 to 100	3.81
Cc1ccc(CC2CON=C(c3c(Oc4cccc(C(F)(F)F)c4)nnc(Cl)c3-c3ccncc3)N2)c(C)c1 (racemic) [I-088, rac-3-[6-chloro-5-(4-pyridyl)-3-[3-(trifluoro-methyl)phenoxy]pyridazin-4-yl]-5-[(2,4-dimethylphenyl)methyl]-5,6-dihydro-4H-1,2,4-oxadiazine]	70 to 79	90 to 100	90 to 100	–	90 to 100	90 to 100	90 to 100	90 to 100	90 to 100	3.76
FC(F)(F)c1cccc(Oc2nnc(Cl)cc2C2=NCC(Cc3ccc(Cl)cc3Cl)N2)c1 (racemic) [I-007, 6-chloro-4-[rac-5-[(2,4-dichlorophenyl)methyl]-4,5-dihydro-1H-imidazol-2-yl]-3-[3-(trifluoromethyl)phenoxy]pyridazine]	–	90 to 100	–	90 to 100	–	90 to 100	90 to 100	90 to 100	–	2.39
COc1ccc(C2NC(c3cc(C)nnc3Oc3cccc(C(F)(F)F)c3)=NOC2(F)F)cc1 (racemic) [I-154, rac-6,6-difluoro-5-(4-methoxyphenyl)-3-[6-methyl-3-[3-(trifluoromethyl)phenoxy]pyridazin-4-yl]-4,5-dihydro-1,2,4-oxadiazine]	–	90 to 100	90 to 100	–	90 to 100	90 to 100	90 to 100	90 to 100	90 to 100	3.6
CC(=O)c1cc(C2=NOCC(Cc3ccc(C)cc3C)N2)c(Oc2cccc(C(F)(F)F)c2)nn1 (racemic) [I-042, 1-[5-[rac-5-[(2,4-dimethylphenyl)methyl]-5,6-dihydro-4H-1,2,4-oxadiazin-3-yl]-6-[3-(trifluoromethyl)phenoxy]pyridazin-3-yl]ethanone]	90 to 100	90 to 100	90 to 100	–	90 to 100	90 to 100	90 to 100	90 to 100	90 to 100	4.27
